Test results from patent US8921383B2, “Thiazolopyrimidine compounds” (Hoffmann-La Roche Inc., priority 2011, dated 2014).

target: T1, purified recombinant human SYK360-635 (Homo sapiens, UniProt P43405); experiment: SYK kinase assay: 33P γATP incorporation into biotinylated peptide substrate, IC50 determination; type: biochemical; conditions: SYK 0.5 nM, ATP 20 μM, DYE peptide 5 μM, 30° C. 15 min; read-out: IC50 h-syk-gst-sf9-c (inactive-dephosphorylated)
T1 construct: truncated construct of Spleen Tyrosine Kinase aa 360-635; GST; made in house
Experimental: Determination of IC50 of Spleen Tyrosine Kinase (SYK) Inhibition:
SYK kinase assay is a standard kinase assay adapted to a 96 well plate format. This assay is performed in 96-well format for IC50 determination with […] which represented 10 half log dilutions and a 40 μL reaction volume. The assay measures the incorporation of radiolabeled ^33P γATP into an N-terminally biotinylated peptide substrate, derived from naturally occurring phosphoacceptor consensus sequence (Biotin-11aa DY*E). Phosphorylated products were detected upon termination of reactions with EDTA and the addition of Streptavidin coated beads.
Assay plates: 96-well MultiScreen 0.65 um filter plates (Millipore Cat. No.: MADVNOB10)
BSA: Bovine Serum Albumin Fraction V, fatty acid free (Roche Diagnostics GmbH, Cat. No. 9100221) diluted to a final concentration of 0.1%
Assay Dilution Buffer (ADB): 50 mM HEPES, 0.1 mM EGTA, 0.1 mM Na Vanadate, 0.1 mM β-glycerophosphate, 10 mM MgCl2, 1 mM DTT, 0.1% BSA, pH 7.5
Bead wash buffer: 10 g/L PBS (Phosphate buffered saline) with 2M NaCl+1% phosphoric acid.
DMSO and the mixture was incubated for 10 min at RT.
The kinase reaction was initiated by the addition of 10 μL 4× substrate cocktail containing the DYE peptide substrate [0 or 5 μM], ATP [20 μM] and ^33PγATP [2 μCi/r×n]. After incubation at 30° C. for 15 min, the reaction was terminated by the transfer of 25 μL of the reaction sample to a 96 well 0.65 μm Millipore MADVNOB membrane/plate containing 200 μL 5 mM EDTA and 20% Streptavidine coated beads in PBS.
After the last wash membrane/plates were transferred to an adaptor plate, heat dried for 15 min at 60° C., and 50 μL scintillation cocktail was added to each well and 4 h later the amount of radioactivity was counted in a top counter.

Row | IC50 [nM] | SMILES
1 | 3870 | O=C(O)c1cccc(-c2nc(Nc3cccc(N4CC5(COC5)C4)c3)c3ncsc3n2)c1 [Compound I-53, 3-{7-[3-(2-Oxa-6-aza-spiro[3.3]hept-6-yl)-phenylamino]-thiazolo[5,4-d]pyrimidin-5-yl}-benzoic acid]
2 | 337 | C[C@H]1CCCN1c1cccc(Nc2nc(-c3ccc(C(N)=O)cc3)nc3scnc23)c1 [Compound I-62, 4-{7-[3-((S)-2-Methyl-pyrrolidin-1-yl)-phenylamino]-thiazolo[5,4-d]pyrimidin-5-yl}-benzamide]
3 | 1520 | COc1ccc(Nc2nc(N3CCCC(C(=O)Nc4cnccn4)C3)nc3scnc23)cc1OC (centres unmarked) [Compound I-49, 1-(7-(3,4-Dimethoxyphenylamino)thiazolo[5,4-d]pyrimidin-5-yl)-N-(pyrazin-2-yl)piperidine-3-carboxamide]
4 | 566 | COc1ccc(Nc2nc(N3CCC(NC(=O)c4ccc(N)nc4)C3)nc3scnc23)cc1OC (centres unmarked) [Compound I-13, 6-Amino-N-{1-[7-(3,4-dimethoxy-phenylamino)-thiazolo[5,4-d]pyrimidin-5-yl]-pyrrolidin-3-yl}-nicotinamide]
5 | 487 | COc1ccc(Nc2nc(N3CCC(NC(=O)c4ccc5[nH]c(=O)[nH]c5c4)C3)nc3scnc23)cc1OC (centres unmarked) [Compound I-14, N-(1-(7-(3,4-Dimethoxyphenylamino)thiazolo[5,4-d]pyrimidin-5-yl)pyrrolidin-3-yl)-2-oxo-2,3-dihydro-1H-benzo[d]imidazole-5-carboxamide]
6 | 1110 | COc1ccc(Nc2nc(-c3cccc(C(=O)N4CCCNCC4)c3)nc3scnc23)cc1OC [Compound I-2, [1,4]Diazepan-1-yl-{3-[7-(3,4-dimethoxy-phenylamino)-thiazolo[5,4-d]pyrimidin-5-yl]-phenyl}-methanone]
7 | 351 | C[C@H]1CCCN1c1cccc(Nc2nc(-c3ccc(C(=O)NCCN(C)C)cc3)nc3scnc23)c1 [Compound I-65, (S)-N-(2-(Dimethylamino)ethyl)-4-(7-(3-(2-methylpyrrolidin-1-yl)phenylamino)thiazolo[5,4-d]pyrimidin-5-yl)benzamide]
8 | 1850 | COc1ccc(Nc2nc(N3CCC(C(=O)NCCc4ccncc4)CC3)nc3scnc23)cc1OC [Compound I-21, 1-(7-(3,4-Dimethoxyphenylamino)thiazolo[5,4-d]pyrimidin-5-yl)-N-(2-(pyridin-4-yl)ethyl)piperidine-4-carboxamide]
9 | 350 | COc1ccc(Nc2nc(-c3cccc(CCc4ccc(C(=O)O)cc4)c3)nc3scnc23)cc1OC [Compound I-33, 4-(3-(7-(3,4-Dimethoxyphenylamino)thiazolo[5,4-d]pyrimidin-5-yl)phenethyl)benzoic acid]
10 | 4210 | COc1ccc(Nc2nc(N3CCCC(C(=O)NC4CNC(=O)C4)C3)nc3scnc23)cc1OC (centres unmarked) [Compound I-48, 1-(7-(3,4-Dimethoxyphenylamino)thiazolo[5,4-d]pyrimidin-5-yl)-N-(5-oxopyrrolidin-3-yl)piperidine-3-carboxamide]
11 | 136 | COc1ccc(Nc2nc(N3CCCC(C(=O)Nc4ccc(-c5noc(=O)[nH]5)cc4)C3)nc3scnc23)cc1OC (centres unmarked) [Compound I-44, 1-(7-(3,4-Dimethoxyphenylamino)thiazolo[5,4-d]pyrimidin-5-yl)-N-(4-(5-oxo-4,5-dihydro-1,2,4-oxadiazol-3-yl)phenyl)piperidine-3-carboxamide]
12 | 56 | COc1ccc(Nc2nc(-c3cccc(C(=O)Nc4ccc5cn[nH]c5c4)c3)nc3scnc23)cc1OC [Compound I-19, 3-[7-(3,4-Dimethoxy-phenylamino)-thiazolo[5,4-d]pyrimidin-5-yl]-N-(1H-indazol-6-yl)-benzamide]
13 | 3180 | COC(=O)c1cccc(-c2nc(Nc3cccc(C(F)(F)F)c3)c3ncsc3n2)c1 [Compound I-56, Methyl 3-(7-(3-(trifluoromethyl)phenylamino)thiazolo[5,4-d]pyrimidin-5-yl)benzoate]
14 | 2250 | COc1cc(Nc2nc(-c3cccc(C(N)=O)c3)nc3scnc23)cc(OC)c1OC [Compound I-58, 3-[7-(3,4,5-Trimethoxy-phenylamino)-thiazolo[5,4-d]pyrimidin-5-yl]-benzamide]
15 | 164 | COc1ccc(Nc2nc(N3CCCC(C(=O)Nc4ccc(C(=O)O)c(OC)c4)C3)nc3scnc23)cc1OC (centres unmarked) [Compound I-43, 4-({1-[7-(3,4-Dimethoxy-phenylamino)-thiazolo[5,4-d]pyrimidin-5-yl]-piperidine-3-carbonyl}-amino)-2-methoxy-benzoic acid]
16 | 912 | COc1ccc(Nc2nc(N3CCC(NC(=O)c4ccc(C(N)=O)nc4)C3)nc3scnc23)cc1OC (centres unmarked) [Compound I-37, N5-(1-(7-(3,4-Dimethoxyphenylamino)thiazolo[5,4-d]pyrimidin-5-yl)pyrrolidin-3-yl)pyridine-2,5-dicarboxamide]
17 | 930 | COc1ccc(Nc2nc(-c3ccc(C(=O)NCCc4cc[nH]c(=O)c4)cc3)nc3scnc23)cc1OC [Compound I-23, 4-(7-(3,4-Dimethoxyphenylamino)thiazolo[5,4-d]pyrimidin-5-yl)-N-(2-(2-oxo-1,2-dihydropyridin-4-yl)ethyl)benzamide]
18 | 566 | COc1ccc(Nc2nc(-c3ccc(C(=O)NCCc4ccncc4)cc3)nc3scnc23)cc1OC [Compound I-20, 4-[7-(3,4-Dimethoxy-phenylamino)-thiazolo[5,4-d]pyrimidin-5-yl]-N-(2-pyridin-4-yl-ethyl)-benzamide]
19 | 4250 | O=C(O)c1cccc(-c2nc(Nc3cccc(C(F)(F)F)c3)c3ncsc3n2)c1 [Compound I-57, 3-[7-(3-Trifluoromethyl-phenylamino)-thiazolo[5,4-d]pyrimidin-5-yl]-benzoic acid]
20 | 156 | COc1ccc(Nc2nc(N3CCCC(C(=O)Nc4ccc(-c5nnc(S)o5)cc4)C3)nc3scnc23)cc1OC (centres unmarked) [Compound I-51, 1-(7-(3,4-Dimethoxyphenylamino)thiazolo[5,4-d]pyrimidin-5-yl)-N-(4-(5-mercapto-1,3,4-oxadiazol-2-yl)phenyl)piperidine-3-carboxamide]
21 | 3130 | COCC1CCCN1c1cccc(Nc2nc(-c3cccc(C(=O)O)c3)nc3scnc23)c1 (centres unmarked) [Compound I-28, 3-{7-[3-(2-Methoxymethyl-pyrrolidin-1-yl)-phenylamino]-thiazolo[5,4-d]pyrimidin-5-yl}-benzoic acid]
22 | 916 | COc1ccc(Nc2nc(-c3ccc(C(=O)NCCc4ccn(C)c(=O)c4)cc3)nc3scnc23)cc1OC [Compound I-24, 4-[7-(3,4-Dimethoxy-phenylamino)-thiazolo[5,4-d]pyrimidin-5-yl]-N-[2-(1-methyl-2-oxo-1,2-dihydro-pyridin-4-yl)-ethyl]-benzamide]
23 | 1920 | COc1ccc(Nc2nc(N3CCCC(C(=O)Nc4ccc5c(c4)C(=O)NC5=O)C3)nc3scnc23)cc1OC (centres unmarked) [Compound I-50, 1-(7-(3,4-Dimethoxyphenylamino)thiazolo[5,4-d]pyrimidin-5-yl)-N-(1,3-dioxoisoindolin-5-yl)piperidine-3-carboxamide]
24 | 71 | COc1ccc(Nc2nc(N3CCCC(C(=O)Nc4ccc(C(=O)O)c(O)c4)C3)nc3scnc23)cc1OC (centres unmarked) [Compound I-47, 4-(1-(7-(3,4-Dimethoxyphenylamino)thiazolo[5,4-d]pyrimidin-5-yl)piperidine-3-carboxamido)-2-hydroxybenzoic acid]
25 | 421 | COc1ccc(Nc2nc(-c3cccc(C(=O)O)c3)nc3scnc23)cc1OC [Compound I-1, 3-[7-(3,4-Dimethoxy-phenylamino)-thiazolo[5,4-d]pyrimidin-5-yl]-benzoic acid]
26 | 4880 | COc1ccc(Nc2nc(N3CCC(C(=O)NCCc4cc[nH]c(=O)c4)CC3)nc3scnc23)cc1OC [Compound I-22, 1-(7-(3,4-Dimethoxyphenylamino)thiazolo[5,4-d]pyrimidin-5-yl)-N-(2-(2-oxo-1,2-dihydropyridin-4-yl)ethyl)piperidine-4-carboxamide]
27 | 2060 | COC(=O)c1cccc(-c2nc(Nc3cccc(S(C)(=O)=O)c3)c3ncsc3n2)c1 [Compound I-26, Methyl 3-(7-(3-(methylsulfonyl)phenylamino)thiazolo[5,4-d]pyrimidin-5-yl)benzoate]
28 | 5410 | COc1ccc(Nc2nc(N3CCCC(C(=O)Nc4ccc5c(c4)CC(=O)N5)C3)nc3scnc23)cc1OC (centres unmarked) [Compound I-40, 1-(7-(3,4-Dimethoxyphenylamino)thiazolo[5,4-d]pyrimidin-5-yl)-N-(2-oxoindolin-5-yl)piperidine-3-carboxamide]
29 | 441 | COc1ccc(Nc2nc(N3CCCC(C(=O)Nc4ccc(-c5nnc(S)n5C)cc4)C3)nc3scnc23)cc1OC (centres unmarked) [Compound I-52, 1-(7-(3,4-Dimethoxyphenylamino)thiazolo[5,4-d]pyrimidin-5-yl)-N-(4-(5-mercapto-4-methyl-4H-1,2,4-triazol-3-yl)phenyl)piperidine-3-carboxamide]
